For experiment [1], the target named is T1, IRAK1 (His-TEV-IRAK1 (194-712)) (Homo sapiens, UniProt P51617).
T1 construct: His-TEV-IRAK1 (194-712); His (N); TEV cleavage site (N)
The experiment is described as follows: IRAK1 enzymatic assay. The format is biochemical. The settings on record: human recombinant His-TEV-IRAK1, ATP 1 μM, 3 hours at 30° C., FlashPlate. How it is done:
IRAK1 Enzymatic Assay IRAK1 is a human purified recombinant enzyme (His-TEV-IRAK1 (194-712)). In this assay, IRAK-1 hydrolyses ATP and autophosphorylates. Measurement of IRAK-1 inhibition was performed in streptavidin coated 384 well FlashPlate (PerkinElmer #SM[…]). His-TEV-IRAK-1 (15 ng/well), ATP (1 μ[…]]ATP 0.25 μCi/well) and compounds in DMSO (range of concentrations from 20 μM to 1 nM) or controls (2% DMSO) were incubated for 3 hours at 30° C. in assay buffer: Hepes pH7.0 50 mM, Fatty acid-free BSA 0.1%, Dithiothreitol DTT 2 mM, MgCl2 10 mM, EGTA 0.5 mM, Triton-X-100 0.01%. Kinase reaction was stopped by addition of EDTA. Supernatant was discarded, plates were washed three times with 150 mM NaCl and radioactivity was then measured in a Microbeta Trilux reader.

For experiment [2], the target named is T2, IRAK4 (His-TEV-IRAK4) (Homo sapiens, UniProt Q9NWZ3).
T2 construct: His (N); TEV cleavage site (N)
T2 sequence (Q9NWZ3 1-460): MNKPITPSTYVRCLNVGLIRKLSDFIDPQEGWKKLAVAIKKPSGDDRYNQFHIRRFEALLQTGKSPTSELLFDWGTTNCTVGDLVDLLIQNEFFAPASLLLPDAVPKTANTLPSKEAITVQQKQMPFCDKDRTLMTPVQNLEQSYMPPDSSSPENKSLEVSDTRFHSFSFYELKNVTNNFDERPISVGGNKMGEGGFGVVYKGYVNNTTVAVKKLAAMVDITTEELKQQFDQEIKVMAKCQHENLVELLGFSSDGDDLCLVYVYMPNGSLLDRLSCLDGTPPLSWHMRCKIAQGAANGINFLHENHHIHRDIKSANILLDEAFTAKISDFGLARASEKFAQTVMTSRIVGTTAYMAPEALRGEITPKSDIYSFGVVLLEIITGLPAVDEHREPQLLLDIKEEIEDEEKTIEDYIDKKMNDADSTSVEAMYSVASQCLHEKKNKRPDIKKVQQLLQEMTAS
Description: IRAK4 enzymatic assay. The settings on record: human recombinant His-TEV-IRAK4, ATP 2 μM, STK1-biotin peptide 300 nM, 3 hours at 30° C., FlashPlate. Type of experiment: biochemical. As for the experimental part: IRAK4 Enzymatic Assay IRAK4 is a human purified recombinant enzyme (His-TEV-[…] (194-712). IRAK4 hydrolyses ATP, autophosphorylates and phosphorylates a Serine/Threonine generic peptidic substrate (STK: 61 ST1BLC from CisBio International based in Bagnols/Cèze FR). Measurement of IRAK-4 inhibition was performed in streptavidin coated 384 well FlashPlate (PerkinElmer #SM[…]). His-TEV-IRAK4 (20 ng/well), ATP (2 μM, [^33P]ATP 0.25 μCi/well), STK1-biotin peptide (300 nM) and compounds in DMSO (range of concentrations from 20 μM to 1 nM) or controls (2% DMSO) were incubated for 3 hours at 30° C. in assay buffer: Hepes pH7.0 50 mM, Fatty acid-free BSA 0.1%, Dithiothreitol DTT 2 mM, MgCl2 10 mM, EGTA 0.5 mM, Tween-20 0.01%, MnCl2 5 mM. Kinase reaction was stopped by addition of EDTA. Supernatant was discarded, plates were washed three times with 150 mM NaCl and radioactivity was then measured in a Microbeta Trilux reader.

Data on 20 compounds can be found in patent publication US10314841B2, “Substituted pyrazoles as IRAK inhibitors” (Merck Patent GmbH, priority 2014, dated 2019).

Some results are limits rather than exact numbers.

T1 sequence (P51617 194-712): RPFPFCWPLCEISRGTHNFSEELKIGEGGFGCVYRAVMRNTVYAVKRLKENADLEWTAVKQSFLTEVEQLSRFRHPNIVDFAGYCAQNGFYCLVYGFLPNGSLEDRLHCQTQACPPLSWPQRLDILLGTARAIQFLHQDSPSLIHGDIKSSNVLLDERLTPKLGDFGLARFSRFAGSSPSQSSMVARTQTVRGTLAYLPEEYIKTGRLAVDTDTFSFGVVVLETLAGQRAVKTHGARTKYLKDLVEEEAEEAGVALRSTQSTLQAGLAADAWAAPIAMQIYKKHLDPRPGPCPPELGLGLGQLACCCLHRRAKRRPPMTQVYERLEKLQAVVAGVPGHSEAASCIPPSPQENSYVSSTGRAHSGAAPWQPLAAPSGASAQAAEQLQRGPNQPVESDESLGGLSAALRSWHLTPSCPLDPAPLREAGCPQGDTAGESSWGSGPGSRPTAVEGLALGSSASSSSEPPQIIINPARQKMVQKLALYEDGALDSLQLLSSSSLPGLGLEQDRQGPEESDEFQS

Take `CC1COCCC1N1CCC[C@H](n2cc(-c3cnc(-c4cccc(-c5cnn(C)c5)c4)nc3)cn2)C1` (stereo partly drawn) [Compound 39, 2-[3-(1-Methyl-1H-pyrazol-4-yl)-phenyl]-5-{1-[(S)-1-(3-methyl-tetrahydro-pyran-4-yl)-piperidin-3-yl]-1H-pyrazol-4-yl}-pyrimidine]: the IC50 in experiment [1] and in experiment [2] was 100 to 1000 nM throughout.

Consider `CC1COCCC1N1CCC[C@@H](n2cc(-c3cnc(-c4cccc(-c5cnn(C)c5)c4)nc3)cn2)C1` (stereo partly drawn) [Compound 40, 2-[3-(1-Methyl-1H-pyrazol-4-yl)-phenyl]-5-{1-[(R)-1-(3-methyl-tetrahydro-pyran-4-yl)-piperidin-3-yl]-1H-pyrazol-4-yl}-pyrimidine], for which the IC50 in experiment [1] and in experiment [2] was 100 to 1000 nM throughout.

For `Cn1cc(-c2cccc(-c3ncc(-c4cnn([C@H]5CC[C@]6(CCC(=O)N6CCO)CC5)c4)cn3)c2)cn1` [Compound 31, 1-(2-Hydroxy-ethyl)-8-(4-{2-[3-(1-methyl-1H-pyrazol-4-yl)-phenyl]-pyrimidin-5-yl}-pyrazol-1-yl)-1-aza-spiro[4.5]decan-2-one], the concentration for half-maximal inhibition (IC50) is 100 to 1000 nM in experiment [1] and under 100 nM in experiment [2].

For `Cn1cc(-c2cccc(-c3ncc(-c4cnn(C5CCCC(O)(CO)C5)c4)cn3)c2)cn1` (stereo not drawn) [Compound 1, 1-Hydroxymethyl-3-(4-{2-[3-(1-methyl-1H-pyrazol-4-yl)-phenyl]-pyrimidin-5-yl}-pyrazol-1-yl)-cyclohexanol], the 50% inhibitory concentration (IC50) is 100 to 1000 nM in experiment [1] and under 100 nM in experiment [2].

As to `O[C@H]1CC[C@H](n2cc(-c3cnc(-c4cccc(-c5cnn(C6CCNCC6)c5)c4)nc3)cn2)CC1` [Compound 32, 4-(4-{2-[3-(1-Piperidin-4-yl-1H-pyrazol-4-yl)-phenyl]-pyrimidin-5-yl}-pyrazol-1-yl)-cyclohexanol], the IC50 lay in the range of 1000 to 20000 nM in experiment [1] and 100 to 1000 nM in experiment [2].

As to `CC(=O)N1CCC(n2cc(-c3cnc(-c4cccc(-c5cnn(C)c5)c4)nc3)cn2)C(CO)C1` (mixture of isomers) [Compound 22, 1-[3-Hydroxymethyl-4-(4-{2-[3-(1-methyl-1H-pyrazol-4-yl)-phenyl]-pyrimidin-5-yl}-pyrazol-1-yl)-piperidin-1-yl]-ethanone], the IC50 is 100 to 1000 nM in experiment [1] and under 100 nM in experiment [2].

In the case of `Cn1cc(-c2cccc(-c3ncc(-c4cnn(C5CCN(C(=O)OC(C)(C)C)CC5)c4)cn3)c2)cn1` [Compound 8, 4-(4-{2-[3-(1-Methyl-1H-pyrazol-4-yl)-phenyl]-pyrimidin-5-yl}-pyrazol-1-yl)-piperidine-1-carboxylic acid tert-butyl ester], the IC50 in experiment [1] and in experiment [2] was 100 to 1000 nM each time.

In the case of `CN1[C@H]2CC[C@@H]1C(F)[C@@H](n1cc(-c3cnc(-c4cccc(-c5cnn(C)c5)c4)nc3)cn1)C2` (stereo partly drawn) [Compound 20, 2-Fluoro-8-methyl-3-(4-{2-[3-(1-methyl-1H-pyrazol-4-yl)-phenyl]-pyrimidin-5-yl}-pyrazol-1-yl)-8-aza-bicyclo[3.2.1]octane], the IC50 in experiment [1] and in experiment [2] was 100 to 1000 nM throughout.

Consider `C=CS(=O)(=O)NCCn1cc(-c2cnc(-c3cccc(-c4cnn(C)c4)c3)nc2)cn1` [Compound 16, Ethenesulfonic acid [2-(4-{2-[3-(1-methyl-1H-pyrazol-4-yl)-phenyl]-pyrimidin-5-yl}-pyrazol-1-yl)-ethyl]-amide], for which the 50% inhibitory concentration (IC50) in experiment [1] and in experiment [2] was 100 to 1000 nM throughout.

As for `CN(C)C/C=C/C(=O)N1CCC(n2cc(-c3cnc(-c4cccc(-c5cnn(C)c5)c4)nc3)cn2)CC1` [Compound 47, (E)-4-Dimethylamino-1-[4-(4-{2-[3-(1-methyl-1H-pyrazol-4-yl)-phenyl]-pyrimidin-5-yl}-pyrazol-1-yl)-piperidin-1-yl]-but-2-en-1-one], the 50% inhibitory concentration (IC50) in experiment [1] and in experiment [2] was 100 to 1000 nM throughout.

As for `Cn1ccc(-c2cccc(-c3ncc(-c4cnn([C@H]5CC[C@]6(CCC(=O)N6C)CC5)c4)cn3)c2)n1` [Compound 44, 1-Methyl-8-(4-{2-[3-(1-methyl-1H-pyrazol-3-yl)-phenyl]-pyrimidin-5-yl}-pyrazol-1-yl)-1-aza-spiro[4.5]decan-2-one], the 50% inhibitory concentration (IC50) in experiment [2] is under 100 nM.

Take `Cn1cc(-c2cccc(-c3ncc(-c4cnn(CCNC(=O)OC(C)(C)C)c4)cn3)c2)cn1` [Compound 6, [2-(4-{2-[3-(1-Methyl-1H-pyrazol-4-yl)-phenyl]-pyrimidin-5-yl}-pyrazol-1-yl)-ethyl]-carbamic acid tert-butyl ester]: the IC50 in experiment [1] and in experiment [2] was 100 to 1000 nM in each case.

For the compound `CN1CCCC(n2cc(-c3cnc(-c4cccc(-c5cnn(C)c5)c4)nc3)cn2)CC1=O` (stereo not drawn) [Compound 24, 1-Methyl-4-(4-{2-[3-(1-methyl-1H-pyrazol-4-yl)-phenyl]-pyrimidin-5-yl}-pyrazol-1-yl)-azepan-2-one], the IC50 in experiment [1] is 100 to 1000 nM; in experiment [2] it was under 100 nM.

As for `Cn1cc(-c2cccc(-c3ncc(-c4cnn([C@H]5CCC[C@H](N6CCOCC6)C5)c4)cn3)c2)cn1` (relative stereo) [Compound 5, 4-[Trans-3-(4-{2-[3-(1-Methyl-1H-pyrazol-4-yl)-phenyl]-pyrimidin-5-yl}-pyrazol-1-yl)-cyclohexyl]-morpholine], the half-maximal inhibitory concentration (IC50) in experiment [1] and in experiment [2] was 100 to 1000 nM in each case.

On to `Cn1cc(-c2cccc(-c3ncc(-c4cnn(C5CCCN(C(=O)OC(C)(C)C)C5)c4)cn3)c2)cn1` (stereo not drawn) [Compound 7, 3-(4-{2-[3-(1-Methyl-1H-pyrazol-4-yl)-phenyl]-pyrimidin-5-yl}-pyrazol-1-yl)-piperidine-1-carboxylic acid tert-butyl ester], for which the half-maximal inhibitory concentration (IC50) in experiment [1] and in experiment [2] was 100 to 1000 nM in each case.

`COCC1CNCCC1n1cc(-c2cnc(-c3cccc(-c4cnn(C)c4)c3)nc2)cn1` (stereo not drawn) [Compound 29, 5-[1-(3-Methoxymethyl-piperidin-4-yl)-1H-pyrazol-4-yl]-2-[3-(1-methyl-1H-pyrazol-4-yl)-phenyl]-pyrimidine]: the half-inhibitory concentration (IC50) was 1000 to 20000 nM in experiment [1] and 100 to 1000 nM in experiment [2].

With `O[C@H]1CC[C@H](n2cc(-c3cnc(-c4cccc(-c5cnn(CCN6CCOCC6)c5)c4)nc3)cn2)CC1` [Compound 30, (1r,4r)-4-[4-(2-{3-[1-(2-Morpholin-4-yl-ethyl)-1H-pyrazol-4-yl]-phenyl}-pyrimidin-5-yl)-pyrazol-1-yl]-cyclohexanol], the IC50 in experiment [1] was in the range of 1000 to 20000 nM; in experiment [2] it was 100 to 1000 nM.

As to `Cn1cc(-c2cccc(-c3ncc(-c4cnn(C5CCCC(N6CCCC(F)(F)C6)C5)c4)cn3)c2)cn1` (stereo not drawn) [Compound 25, 5-{1-[3-(3,3-Difluoro-piperidin-1-yl)-cyclohexyl]-1H-pyrazol-4-yl}-2-[3-(1-methyl-1H-pyrazol-4-yl)-phenyl]-pyrimidine], the values for the IC50 in experiment [1] and in experiment [2] were 100 to 1000 nM and under 100 nM, respectively.

On to `C=CC(=O)NCCn1cc(-c2cnc(-c3cccc(-c4cnn(C)c4)c3)nc2)cn1` [Compound 13, N-[2-(4-{2-[3-(1-Methyl-1H-pyrazol-4-yl)-phenyl]-pyrimidin-5-yl}-pyrazol-1-yl)-ethyl]-acrylamide], for which the concentration for half-maximal inhibition (IC50) in experiment [1] and in experiment [2] was 100 to 1000 nM throughout.

Regarding `Cn1cc(-c2cccc(-c3ncc(-c4cnn(C5CCCNC(=O)C5)c4)cn3)c2)cn1` (stereo not drawn) [Compound 23, 4-(4-{2-[3-(1-Methyl-1H-pyrazol-4-yl)-phenyl]-pyrimidin-5-yl}-pyrazol-1-yl)-azepan-2-one], the values for the IC50 in experiment [1] and in experiment [2] were 100 to 1000 nM and under 100 nM, respectively.
